Source: US20230416232A1, “PYRIMIDINE COMPOUNDS, COMPOSITIONS, AND MEDICINAL APPLICATIONS THEREOF” (Blueprint Medicines Corporation, priority 2020, published 2023)

Tests used:
Type in all cases: cell-based
[1] = target: EGFR (A767_dupASV) expressing Ba/F3 stable cell line (Homo sapiens, UniProt P00533, DUP767-769, cells depend on it); assay: Cellular proliferation (Alamar Blue) assay, EGFR (A767_dupASV) Ba/F3; settings: 72 hr, read-out: A767 IC50
Outline: (§1)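 Compound treatment lasted 72 h at 37 °C across a final 10-0.0005 μM range in 3-fold steps; cell growth was measured with Alamar Blue (3 h). Ba/F3 seeded at 15,000 and A431 at 5000 cells/well.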

[2] = target: EGFR(D770_N771insSVD) expressing Ba/F3 stable cell line (Homo sapiens, UniProt P00533, DUP768-770, cells depend on it); assay: Cellular proliferation (Alamar Blue) assay, EGFR(D770_N771insSVD) Ba/F3; settings: 72 hr, read-out: D770 IC50
Outline: as §1

[3] = target: HER2 (A775_G776insYVMA) expressing Ba/F3 stable cell line (Homo sapiens, UniProt P04626, DUP772-775, cells depend on it); assay: Cellular proliferation (Alamar Blue) assay, HER2 (A775_G776insYVMA) Ba/F3; settings: HER2 (A775_G776insYVMA) Ba/F3 cells; 72 hr; Alamar Blue; read-out: YVMA IC50
Outline: as §1

[4] = system: A431 cells; assay: Cellular proliferation (Alamar Blue) assay, A431 cells; settings: Homo sapiens, A-431, 72 h, A431 cells; 72 hr; Alamar Blue; read-out: A431 IC50
Outline: as §1

Sequence of EGFR(D770_N771insSVD) expressing Ba/F3 stable cell line (P00533 with tags, fused parts or gaps DUP768-770): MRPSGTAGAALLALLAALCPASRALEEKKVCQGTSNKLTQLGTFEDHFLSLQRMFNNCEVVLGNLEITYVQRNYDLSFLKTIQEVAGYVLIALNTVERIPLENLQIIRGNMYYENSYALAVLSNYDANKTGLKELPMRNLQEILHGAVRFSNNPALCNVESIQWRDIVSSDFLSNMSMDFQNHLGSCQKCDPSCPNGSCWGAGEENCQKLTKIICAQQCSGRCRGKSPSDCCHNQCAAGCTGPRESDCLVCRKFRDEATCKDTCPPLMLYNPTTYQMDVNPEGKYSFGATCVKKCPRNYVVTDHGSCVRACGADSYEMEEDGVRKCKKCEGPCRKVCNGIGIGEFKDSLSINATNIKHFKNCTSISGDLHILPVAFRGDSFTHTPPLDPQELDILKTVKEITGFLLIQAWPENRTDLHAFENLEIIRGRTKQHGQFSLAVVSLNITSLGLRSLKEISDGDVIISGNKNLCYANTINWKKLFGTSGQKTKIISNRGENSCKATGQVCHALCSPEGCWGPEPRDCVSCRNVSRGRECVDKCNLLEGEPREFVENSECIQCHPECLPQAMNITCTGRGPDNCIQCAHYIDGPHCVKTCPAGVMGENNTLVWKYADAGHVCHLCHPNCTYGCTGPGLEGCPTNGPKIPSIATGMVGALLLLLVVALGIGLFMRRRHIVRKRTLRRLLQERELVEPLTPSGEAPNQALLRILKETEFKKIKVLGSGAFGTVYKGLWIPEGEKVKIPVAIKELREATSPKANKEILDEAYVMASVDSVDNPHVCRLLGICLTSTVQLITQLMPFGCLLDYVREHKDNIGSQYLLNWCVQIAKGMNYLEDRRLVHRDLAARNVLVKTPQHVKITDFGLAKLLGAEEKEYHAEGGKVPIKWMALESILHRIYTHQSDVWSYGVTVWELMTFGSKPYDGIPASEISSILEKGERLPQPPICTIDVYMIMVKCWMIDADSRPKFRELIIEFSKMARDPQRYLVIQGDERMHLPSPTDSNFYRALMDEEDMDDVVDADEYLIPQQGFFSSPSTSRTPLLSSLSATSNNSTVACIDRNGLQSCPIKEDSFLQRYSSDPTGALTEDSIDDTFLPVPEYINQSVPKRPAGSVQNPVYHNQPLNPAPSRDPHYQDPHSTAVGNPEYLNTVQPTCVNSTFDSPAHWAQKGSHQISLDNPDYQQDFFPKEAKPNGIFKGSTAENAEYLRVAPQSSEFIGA
Sequence of HER2 (A775_G776insYVMA) expressing Ba/F3 stable cell line (P04626 with tags, fused parts or gaps DUP772-775): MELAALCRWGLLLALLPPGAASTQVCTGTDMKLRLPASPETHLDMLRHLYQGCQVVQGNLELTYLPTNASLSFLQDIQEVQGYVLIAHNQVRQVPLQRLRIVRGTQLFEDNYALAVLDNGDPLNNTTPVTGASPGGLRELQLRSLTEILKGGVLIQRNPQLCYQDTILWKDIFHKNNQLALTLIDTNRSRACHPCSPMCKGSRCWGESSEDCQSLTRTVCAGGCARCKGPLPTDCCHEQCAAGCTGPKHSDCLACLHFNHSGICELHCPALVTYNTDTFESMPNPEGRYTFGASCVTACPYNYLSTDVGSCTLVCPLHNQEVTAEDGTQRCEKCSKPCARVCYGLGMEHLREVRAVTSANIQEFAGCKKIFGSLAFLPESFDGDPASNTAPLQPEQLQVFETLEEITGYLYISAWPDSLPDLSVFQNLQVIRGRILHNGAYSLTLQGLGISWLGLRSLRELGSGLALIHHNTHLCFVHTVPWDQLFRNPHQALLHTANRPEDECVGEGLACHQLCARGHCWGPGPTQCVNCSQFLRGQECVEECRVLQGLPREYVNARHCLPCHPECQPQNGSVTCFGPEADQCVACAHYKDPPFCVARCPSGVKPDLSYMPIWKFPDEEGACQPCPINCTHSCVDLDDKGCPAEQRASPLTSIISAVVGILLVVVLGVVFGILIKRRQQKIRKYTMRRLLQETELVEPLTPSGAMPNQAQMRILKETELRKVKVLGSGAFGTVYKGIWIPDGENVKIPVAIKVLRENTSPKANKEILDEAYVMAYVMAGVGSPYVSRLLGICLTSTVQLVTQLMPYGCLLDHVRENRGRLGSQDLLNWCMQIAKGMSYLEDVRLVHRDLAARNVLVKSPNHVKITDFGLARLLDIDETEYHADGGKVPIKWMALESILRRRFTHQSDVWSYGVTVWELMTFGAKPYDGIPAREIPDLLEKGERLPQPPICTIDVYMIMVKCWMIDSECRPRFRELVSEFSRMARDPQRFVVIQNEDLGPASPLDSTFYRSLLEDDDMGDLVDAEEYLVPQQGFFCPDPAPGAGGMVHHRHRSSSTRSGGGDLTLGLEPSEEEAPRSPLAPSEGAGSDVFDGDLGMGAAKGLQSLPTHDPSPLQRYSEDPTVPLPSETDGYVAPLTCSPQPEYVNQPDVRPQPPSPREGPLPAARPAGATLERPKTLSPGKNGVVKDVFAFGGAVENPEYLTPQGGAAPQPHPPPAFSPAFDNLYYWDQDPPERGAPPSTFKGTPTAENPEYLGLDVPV
Sequence of EGFR (A767_dupASV) expressing Ba/F3 stable cell line (P00533 with tags, fused parts or gaps DUP767-769): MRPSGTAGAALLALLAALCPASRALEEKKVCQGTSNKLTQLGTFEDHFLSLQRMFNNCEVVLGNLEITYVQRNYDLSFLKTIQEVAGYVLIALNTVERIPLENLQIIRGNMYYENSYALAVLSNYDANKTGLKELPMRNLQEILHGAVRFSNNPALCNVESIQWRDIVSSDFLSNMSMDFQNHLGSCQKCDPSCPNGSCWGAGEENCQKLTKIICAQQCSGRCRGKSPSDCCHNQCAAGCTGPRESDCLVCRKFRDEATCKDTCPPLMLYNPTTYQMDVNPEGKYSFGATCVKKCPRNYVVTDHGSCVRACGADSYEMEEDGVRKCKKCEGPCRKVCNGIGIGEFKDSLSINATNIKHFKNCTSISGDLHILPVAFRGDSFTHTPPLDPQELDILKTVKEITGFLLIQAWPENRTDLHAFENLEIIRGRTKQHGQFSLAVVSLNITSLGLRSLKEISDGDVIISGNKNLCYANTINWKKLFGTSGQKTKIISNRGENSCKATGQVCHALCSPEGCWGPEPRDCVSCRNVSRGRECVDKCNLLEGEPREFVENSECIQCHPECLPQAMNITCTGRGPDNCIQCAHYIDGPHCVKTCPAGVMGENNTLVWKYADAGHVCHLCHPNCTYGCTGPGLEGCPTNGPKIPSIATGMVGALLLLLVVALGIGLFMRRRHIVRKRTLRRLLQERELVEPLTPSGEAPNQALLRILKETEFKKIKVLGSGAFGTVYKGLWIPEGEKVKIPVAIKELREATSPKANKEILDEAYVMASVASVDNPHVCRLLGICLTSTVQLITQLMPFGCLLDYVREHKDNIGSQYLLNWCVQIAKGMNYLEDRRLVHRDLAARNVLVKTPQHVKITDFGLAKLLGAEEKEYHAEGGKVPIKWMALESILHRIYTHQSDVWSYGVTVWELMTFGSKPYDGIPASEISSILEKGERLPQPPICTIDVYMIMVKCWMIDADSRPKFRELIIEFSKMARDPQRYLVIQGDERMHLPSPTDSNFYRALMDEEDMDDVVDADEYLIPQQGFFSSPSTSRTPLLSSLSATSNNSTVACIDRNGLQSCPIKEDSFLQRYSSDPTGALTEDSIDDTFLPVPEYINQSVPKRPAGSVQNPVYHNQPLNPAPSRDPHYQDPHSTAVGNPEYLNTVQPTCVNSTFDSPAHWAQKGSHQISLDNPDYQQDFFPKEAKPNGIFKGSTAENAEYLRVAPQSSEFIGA

Structure (SMILES) | GI50 [1] | GI50 [2] | GI50 [3] | IC50 [4]
C=CC(=O)Nc1cc(Br)cc(Nc2nc(Nc3cnn(C)c3)ncc2-c2ccc(OC(F)F)c(F)c2)c1 [Compound 132, N-(3-bromo-5-((5-(4-(difluoromethoxy)-3-fluorophenyl)-2-((1-methyl-1H-pyrazol-4-yl)amino)pyrimidin-4-yl)amino)phenyl)acrylamide] | 40 nM | 34 nM | 345 nM | 51 nM
CN(C)C/C=C/C(=O)Nc1ccc(F)c(Nc2nc(Nc3cnn(C)c3)ncc2-c2cc(F)c(Br)c(F)c2)c1 [Compound 171, (E)-N-(3-((5-(4-bromo-3,5-difluorophenyl)-2-((1-methyl-1H-pyrazol-4-yl)amino)pyrimidin-4-yl)amino)-4-fluorophenyl)-4-(dimethylamino)but-2-enamide] | 99 nM | 79 nM | 113 nM | 57 nM
C=CC(=O)Nc1ccc(F)c(Nc2nc(Nc3cn(C)nc3Cl)ncc2-c2cc(F)cc(OC)c2)c1 [Compound 106, N-(3-((2-((3-chloro-1-methyl-1H-pyrazol-4-yl)amino)-5-(3-fluoro-5-methoxyphenyl)pyrimidin-4-yl)amino)-4-fluorophenyl)acrylamide] | 35 nM | 285 nM | 568 nM | 125 nM
C=CC(=O)Nc1ccc(F)c(Nc2nc(Nc3cnn(C)c3)ncc2-c2cc(C(F)(F)F)ccc2F)c1 [Compound 24, N-(4-fluoro-3-((5-(2-fluoro-5-(trifluoromethyl)phenyl)-2-((1-methyl-1H-pyrazol-4-yl)amino)pyrimidin-4-yl)amino)phenyl)acrylamide] | 321 nM | 300 nM | 588 nM | 9420 nM
C=CC(=O)Nc1ccc(F)c(Nc2nc(Nc3cnn(C)c3)ncc2-c2ccc3c(c2)OCC3)c1 [Compound 162, N-(3-((5-(2,3-dihydrobenzofuran-6-yl)-2-((1-methyl-1H-pyrazol-4-yl)amino)pyrimidin-4-yl)amino)-4-fluorophenyl)acrylamide] | 116 nM | 38 nM | 428 nM | 84 nM
C=CC(=O)Nc1ccc(F)c(Nc2nc(Nc3cnn(C)c3)ncc2-c2cc(C(F)F)cc(C(F)F)c2)c1 [Compound 155, N-(3-((5-(3,5-bis(difluoromethyl)phenyl)-2-((1-methyl-1H-pyrazol-4-yl)amino)pyrimidin-4-yl)amino)-4-fluorophenyl)acrylamide] | 133 nM | 107 nM | 1670 nM | 338 nM
C=CC(=O)Nc1cccc(Nc2nc(Nc3cnn(C)c3)ncc2-c2ccc(OC(F)F)c(F)c2)c1 [Compound 124, N-(3-((5-(4-(difluoromethoxy)-3-fluorophenyl)-2-((1-methyl-1H-pyrazol-4-yl)amino)pyrimidin-4-yl)amino)phenyl)acrylamide] | 21 nM | 11 nM | 49 nM | 6 nM
C=CC(=O)Nc1cc(F)c(F)c(Nc2nc(Nc3cnn(C)c3)ncc2-c2cc(F)cc(OC)c2)c1 [Compound 170, N-(3,4-difluoro-5-((5-(3-fluoro-5-methoxyphenyl)-2-((1-methyl-1H-pyrazol-4-yl)amino)pyrimidin-4-yl)amino)phenyl)acrylamide] | > 10000 nM | > 10000 nM | > 9040 nM | 5250 nM
C=CC(=O)Nc1cccc(Nc2nc(Nc3cnn(C)c3)ncc2-c2cc(F)cc(OC)c2)c1 [Compound 127, N-(3-((5-(3-fluoro-5-methoxyphenyl)-2-((1-methyl-1H-pyrazol-4-yl)amino)pyrimidin-4-yl)amino)phenyl)acrylamide] | 312 nM | 89 nM | 167 nM | 123 nM
C=CC(=O)Nc1ccc(F)c(Nc2nc(Nc3cnn(C)c3)ncc2-c2cc(OC)ccc2Cl)c1 [Compound 8, N-(3-((5-(2-chloro-5-methoxyphenyl)-2-((1-methyl-1H-pyrazol-4-yl)amino)pyrimidin-4-yl)amino)-4-fluorophenyl)acrylamide] | 749 nM | 1590 nM | 644 nM | > 10000 nM
